Measured values taken from ChEMBL document CHEMBL1154779, “Synthesis and adrenolytic activity of 1-(1H-indol-4-yloxy)-3-(2-(2-methoxy phenoxy)ethylamino)propan-2-ol analogs and its enantiomers. Part 2” (Eur J Med Chem, 2009).
Active and inactive are the calls of the source. No cut-off for these calls is given here.

Key:
Rattus norvegicus [1] = experiment: Hypotensive activity in normotensive Wistar rat assessed as decrease in systolic blood pressure at 0.25 to 1 mg/kg, iv up to 60 mins; type: functional; parameters: scale not given: the % may be the effect or the level left; conditions: dose mg/kg 0.25-1
Rattus norvegicus [2] = experiment: Effect on heart rate in anesthetized Wistar rat assessed as decrease in heart rate at 1 mg/kg, iv up to 15mins by electrocardiography; type: functional; parameters: scale not given: the % may be the effect or the level left
[3] = (§1) Spasmolytic activity in rabbit ileum assessed as decrease in amplitude of contraction at 100 uM measured for 5 mins; type: functional, Oryctolagus cuniculus; parameters: scale not given: the % may be the effect or the level left
Oryctolagus cuniculus [4] = organism: Oryctolagus cuniculus; experiment: as §1; type: functional
Rattus norvegicus [5] = experiment: Effect on heart rate in anesthetized Wistar rat assessed as heart beats per min at 1 mg/kg, iv after 15 mins by electrocardiography; type: functional
Rattus norvegicus [6] = experiment: Effect on heart rate in anesthetized Wistar rat assessed as P-Q intervals time at 1 mg/kg, iv after 1 min by electrocardiography; type: functional
Rattus norvegicus [7] = experiment: Hypotensive activity in normotensive Wistar rat assessed as decrease in systolic blood pressure at 0.125 mg/kg, iv up to 60 mins; type: functional, organism-based; parameters: dose 0.125 mg/kg; conditions: Artery
Rattus norvegicus [8] = experiment: Hypotensive activity in normotensive Wistar rat assessed as decrease in diastolic blood pressure at 0.125 mg/kg, iv up to 60 mins; type: functional, organism-based; parameters: dose 0.125 mg/kg; conditions: Artery
Rattus norvegicus [9] = experiment: Hypotensive activity in normotensive Wistar rat assessed as decrease in diastolic blood pressure at 0.25 to 1 mg/kg, iv up to 60 mins; type: functional, Artery; parameters: scale not given: the % may be the effect or the level left; conditions: dose mg/kg 0.25-1
[10] = target: T1, Adrenergic receptor alpha-1 (Rattus norvegicus, UniProt P15823+P23944+P43140); experiment: Displacement of [3H]Prazosin from alpha1 adrenergic receptor in Wistar rat cerebral cortex membrane by liquid scintillation counting; type: tissue-based
T1 sequence (P15823 whole entry): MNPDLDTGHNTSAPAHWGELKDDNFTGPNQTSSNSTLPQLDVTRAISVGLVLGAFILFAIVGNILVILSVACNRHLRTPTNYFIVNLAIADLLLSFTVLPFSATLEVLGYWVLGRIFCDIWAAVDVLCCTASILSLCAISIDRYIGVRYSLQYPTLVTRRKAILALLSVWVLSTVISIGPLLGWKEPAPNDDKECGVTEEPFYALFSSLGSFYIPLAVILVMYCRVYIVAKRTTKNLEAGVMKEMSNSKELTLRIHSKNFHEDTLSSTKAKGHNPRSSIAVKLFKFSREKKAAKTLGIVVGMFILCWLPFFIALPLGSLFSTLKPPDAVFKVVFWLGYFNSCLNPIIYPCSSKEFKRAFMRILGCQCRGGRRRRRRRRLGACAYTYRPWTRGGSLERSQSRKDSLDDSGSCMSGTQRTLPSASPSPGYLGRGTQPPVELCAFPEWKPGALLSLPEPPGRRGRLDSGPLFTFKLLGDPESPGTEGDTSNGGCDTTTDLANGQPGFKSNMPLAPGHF
T1 sequence (P23944 whole entry): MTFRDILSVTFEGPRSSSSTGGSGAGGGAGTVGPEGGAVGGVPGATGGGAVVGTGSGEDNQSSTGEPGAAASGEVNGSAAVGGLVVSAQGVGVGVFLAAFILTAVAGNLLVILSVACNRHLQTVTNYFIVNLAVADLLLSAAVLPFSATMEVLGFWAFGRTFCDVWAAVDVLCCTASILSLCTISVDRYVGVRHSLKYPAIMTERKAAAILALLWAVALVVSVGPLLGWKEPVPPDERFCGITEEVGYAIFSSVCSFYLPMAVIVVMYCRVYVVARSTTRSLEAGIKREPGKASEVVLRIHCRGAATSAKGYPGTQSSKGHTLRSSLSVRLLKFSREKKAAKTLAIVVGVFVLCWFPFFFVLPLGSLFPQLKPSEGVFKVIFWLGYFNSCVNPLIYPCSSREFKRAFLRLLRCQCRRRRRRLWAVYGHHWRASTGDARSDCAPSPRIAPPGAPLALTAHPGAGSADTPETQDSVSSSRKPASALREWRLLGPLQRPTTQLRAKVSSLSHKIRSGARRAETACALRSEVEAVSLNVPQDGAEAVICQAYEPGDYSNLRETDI
T1 sequence (P43140 whole entry): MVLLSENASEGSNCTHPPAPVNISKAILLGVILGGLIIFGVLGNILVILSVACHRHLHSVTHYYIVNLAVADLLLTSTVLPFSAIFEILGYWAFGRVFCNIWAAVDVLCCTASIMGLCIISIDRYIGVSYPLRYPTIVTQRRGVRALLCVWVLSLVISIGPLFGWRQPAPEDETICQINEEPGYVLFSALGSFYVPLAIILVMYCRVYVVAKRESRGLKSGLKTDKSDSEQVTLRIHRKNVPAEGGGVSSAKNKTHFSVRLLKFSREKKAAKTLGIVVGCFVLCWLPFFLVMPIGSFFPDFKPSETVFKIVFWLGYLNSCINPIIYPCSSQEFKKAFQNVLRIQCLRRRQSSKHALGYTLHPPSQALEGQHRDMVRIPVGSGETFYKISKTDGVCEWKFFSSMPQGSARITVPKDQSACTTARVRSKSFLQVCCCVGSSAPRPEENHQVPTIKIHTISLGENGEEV

[11] = (§2) Spasmolytic activity in rabbit ileum assessed as decrease in amplitude of contraction at 10 uM measured for 5 mins; type: functional, Oryctolagus cuniculus; parameters: scale not given: the % may be the effect or the level left
Oryctolagus cuniculus [12] = organism: Oryctolagus cuniculus; experiment: as §2; type: functional
Rattus norvegicus [13] = experiment: Effect on heart rate in anesthetized Wistar rat assessed as QRS complex time at 1 mg/kg, iv after 5 mins by electrocardiography; type: functional
Rattus norvegicus [14] = experiment: Hypotensive activity in normotensive Wistar rat assessed as decrease in diastolic blood pressure at 1 to 5 mg/kg, iv up to 60 mins; type: functional, organism-based; conditions: Artery
Rattus norvegicus [15] = experiment: Hypotensive activity in normotensive Wistar rat assessed as decrease in systolic blood pressure at 0.125 mg/kg, iv up to 30 mins; type: functional, organism-based; parameters: dose 0.125 mg/kg; conditions: Artery
Rattus norvegicus [16] = experiment: Hypotensive activity in normotensive Wistar rat assessed as decrease in diastolic blood pressure at 0.125 mg/kg, iv up to 10 mins; type: functional, organism-based; parameters: dose 0.125 mg/kg; conditions: Artery
Rattus norvegicus [17] = experiment: Hypotensive activity in normotensive Wistar rat assessed as decrease in systolic blood pressure at 0.125 to 1 mg/kg, iv up to 60 mins; type: functional, organism-based; conditions: Artery
Rattus norvegicus [18] = experiment: Hypotensive activity in normotensive Wistar rat assessed as decrease in diastolic blood pressure at 0.0312 mg/kg, iv up to 60 mins; type: functional, organism-based; parameters: dose 0.0312 mg/kg; conditions: Artery
Rattus norvegicus [19] = experiment: Hypotensive activity in normotensive Wistar rat assessed as decrease in systolic blood pressure at 0.0312 mg/kg, iv up to 60 mins; type: functional, organism-based; parameters: dose 0.0312 mg/kg; conditions: Artery
Rattus norvegicus [20] = experiment: Hypotensive activity in normotensive Wistar rat assessed as decrease in diastolic blood pressure at 0.0625 mg/kg, iv up to 60 mins; type: functional, organism-based; parameters: dose 0.0625 mg/kg; conditions: Artery
Rattus norvegicus [21] = experiment: Hypotensive activity in normotensive Wistar rat assessed as decrease in systolic blood pressure at 0.0625 mg/kg, iv up to 60 mins; type: functional, organism-based; parameters: dose 0.0625 mg/kg; conditions: Artery

| Structure (SMILES) | Ki [10] [nM] | Activity (Rattus norvegicus [1]) [%] | Activity (Rattus norvegicus [2]) [%] | Activity [3] [%] | Activity (Oryctolagus cuniculus [4]) | Activity (Rattus norvegicus [5]) [bpm] | Activity (Rattus norvegicus [6]) [ms] | Activity (Rattus norvegicus [7]) | Activity (Rattus norvegicus [8]) | Activity (Rattus norvegicus [9]) [%] | Activity [11] [%] | Activity (Oryctolagus cuniculus [12]) | Activity (Rattus norvegicus [13]) [ms] | Activity (Rattus norvegicus [14]) | Activity (Rattus norvegicus [17]) | further results |
| --- | --- | --- | --- | --- | --- | --- | --- | --- | --- | --- | --- | --- | --- | --- | --- | --- |
| COc1ccccc1OCCNCC(O)COc1ccc(OC)c2[nH]ccc12 (racemic) | 75.8 | 12 | 10 | 10 | inactive | 300 | 58.8 | inactive | inactive | 13 | 10 | inactive | 23 | – | – | – |
| COc1ccccc1OCCNC[C@H](O)COc1c(OC)ccc2[nH]ccc12 | 11.3 | – | – | – | Active | 367.6 | 48.7 | – | – | – | – | Active | 28.7 | Active | Active | Activity (Rattus norvegicus [18]): inactive; Activity (Rattus norvegicus [19]): inactive |
| COc1ccccc1OCCNC[C@@H](O)COc1c(OC)ccc2[nH]ccc12 | 45.8 | – | – | – | Active | 387 | 45.3 | – | – | – | – | Active | 28.7 | Active | Active | Activity (Rattus norvegicus [20]): inactive; Activity (Rattus norvegicus [21]): inactive |

Further lines, with some results ahead:

| Ki [10] [nM] | Structure (SMILES) | Activity (Rattus norvegicus [1]) [%] | Activity (Rattus norvegicus [2]) [%] | Activity [3] [%] | Activity (Oryctolagus cuniculus [4]) | Activity (Rattus norvegicus [5]) [bpm] | Activity (Rattus norvegicus [6]) [ms] | Activity (Rattus norvegicus [7]) | Activity (Rattus norvegicus [8]) | Activity (Rattus norvegicus [9]) [%] | Activity [11] [%] | Activity (Oryctolagus cuniculus [12]) | Activity (Rattus norvegicus [13]) [ms] | Activity (Rattus norvegicus [14]) | Activity (Rattus norvegicus [17]) | further results |
| --- | --- | --- | --- | --- | --- | --- | --- | --- | --- | --- | --- | --- | --- | --- | --- | --- |
| 21.1 | COc1ccccc1OCCNCC(O)COc1c(OC)ccc2[nH]ccc12 (racemic) | 7 | – | – | Active | 364.7 | 48.7 | – | – | 8 | – | inactive | 27.3 | Active | Active | Activity (Rattus norvegicus [15]): Active; Activity (Rattus norvegicus [16]): Active |
| 168.8 | COc1ccccc1OCCNC[C@H](O)COc1ccc(OC)c2[nH]ccc12 | 12 | 10 | 10 | – | 275.9 | 58.5 | inactive | inactive | 13 | 10 | – | 24.5 | – | – | – |
| 60.9 | COc1ccccc1OCCNC[C@@H](O)COc1ccc(OC)c2[nH]ccc12 | 12 | 10 | – | – | 255.2 | 58.5 | inactive | inactive | 13 | – | – | 23.3 | – | – | – |
